Measurements taken from ChEMBL document CHEMBL3351431, “Synthesis and evaluation of C2-carbon-linked heterocyclic-5-hydroxy-6-oxo-dihydropyrimidine-4-carboxamides as HIV-1 integrase inhibitors” (Bioorg Med Chem Lett, 2015).

Key:
[1] = test system: Human immunodeficiency virus 1; test: Antiviral activity against HIV1 infected in cell culture in presence of 45 mg/ml human serum albumin and 10% FBS; format: functional, organism-based
[2] = test system: Human immunodeficiency virus 1; test: Antiviral activity against HIV1 infected in cell culture in presence of 10% FBS; format: functional, organism-based
[3] = target: Human immunodeficiency virus type 1 integrase (Human immunodeficiency virus 1, UniProt Q7ZJM1); test: Inhibition of HIV-1 integrase strand transfer activity
Human immunodeficiency virus type 1 integrase, sequence (Q7ZJM1 whole entry): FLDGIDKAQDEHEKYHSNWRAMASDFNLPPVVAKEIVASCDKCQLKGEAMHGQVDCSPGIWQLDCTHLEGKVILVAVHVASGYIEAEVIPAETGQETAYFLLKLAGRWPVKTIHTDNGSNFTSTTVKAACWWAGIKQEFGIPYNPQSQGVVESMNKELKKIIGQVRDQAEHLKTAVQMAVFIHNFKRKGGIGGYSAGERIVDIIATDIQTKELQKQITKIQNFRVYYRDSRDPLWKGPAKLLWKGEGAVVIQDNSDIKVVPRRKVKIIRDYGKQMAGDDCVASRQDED

[4] = Half life in Sprague-Dawley rat at 1 mg/kg, iv; format: ADME, organism-based; set-up: dose 1 mg/kg, route intravenous; conditions: in vivo
[5] = Volume of distribution at steady state in Sprague-Dawley rat at 1 mg/kg, iv; format: ADME, organism-based; set-up: dose 1 mg/kg, route intravenous; conditions: in vivo, read-out: Vdss
[6] = Clearance in Sprague-Dawley rat at 1 mg/kg, iv; format: ADME, organism-based; set-up: dose 1 mg/kg, route intravenous; conditions: in vivo
[7] = Oral bioavailability in Sprague-Dawley rat at 5 mg/kg; format: ADME, organism-based; conditions: in vivo
[8] = AUC in Sprague-Dawley rat at 5 mg/kg, po; format: ADME, organism-based; set-up: dose 5 mg/kg, route oral; conditions: plasma
[9] = Cmax in Sprague-Dawley rat at 5 mg/kg, po; format: ADME, organism-based; set-up: dose 5 mg/kg, route oral; conditions: in vivo
[10] = Tmax in Sprague-Dawley rat at 5 mg/kg, po; format: ADME, organism-based; set-up: dose 5 mg/kg, route oral; conditions: in vivo

Row | EC50 [1] | EC50 [2] | IC50 [3] | half-life [4] | Vd [5] | clearance [6] | bioavailability [7] | AUC [8] | Cmax [9] | Tmax [10] | Structure (SMILES)
1 | 14500 nM | 424 nM | 21 nM |  |  |  |  |  |  |  | Cn1c(-c2ccco2)nc(C(=O)NCc2ccc(F)cc2)c(O)c1=O
2 | 1780 nM | 206 nM | 19 nM |  |  |  |  |  |  |  | Cn1c(C2=CCOC2)nc(C(=O)NCc2ccc(F)cc2)c(O)c1=O
3 | 28 nM | 6 nM | 5 nM | 34.8 min | 0.12 L/kg | 2.6 mL/min/kg |  |  |  |  | Cn1c(C2CCOCC2)nc(C(=O)NCc2ccc(F)cc2)c(O)c1=O
4 | 13 nM | 6 nM | 8 nM | 34.8 min | 0.13 L/kg | 3.9 mL/min/kg |  |  |  |  | Cn1c(C2CCOCC2)nc(C(=O)NCc2ccc(F)cc2S(C)(=O)=O)c(O)c1=O
5 | 15 nM | 4 nM | 12 nM |  |  |  |  |  |  |  | CN(C)S(=O)(=O)c1cc(F)ccc1CNC(=O)c1nc(C2CCOCC2)n(C)c(=O)c1O
6 | 11 nM | 4 nM | 11 nM |  |  |  |  |  |  |  | Cn1c(C2CCOCC2)nc(C(=O)NCc2ccc(F)cc2N2CCCCS2(=O)=O)c(O)c1=O
7 | 18 nM | 10 nM | 6 nM |  |  |  |  |  |  |  | Cn1c(C2CCOCC2)nc(C(=O)NCc2ccc(F)cc2-n2cncn2)c(O)c1=O
8 | 14 nM | 9 nM | 8 nM |  |  |  |  |  |  |  | Cc1ncnn1-c1cc(F)ccc1CNC(=O)c1nc(C2CCOCC2)n(C)c(=O)c1O
9 | 18 nM | 8 nM | 13 nM |  |  |  |  |  |  |  | Cc1cnnn1-c1cc(F)ccc1CNC(=O)c1nc(C2CCOCC2)n(C)c(=O)c1O
10 | 7 nM | 4 nM | 9 nM |  |  |  |  |  |  |  | Cn1ncnc1-c1cc(F)ccc1CNC(=O)c1nc(C2CCOCC2)n(C)c(=O)c1O
11 | 7 nM | 2 nM | 17 nM | 13.2 min | 0.61 L/kg | 41 mL/min/kg |  |  |  |  | Cn1c(C2CCOCC2)nc(C(=O)NCc2ccc(F)cc2N2CCN(C(C)(C)C)S2(=O)=O)c(O)c1=O
12 | 7 nM | 2 nM | 6 nM |  |  |  |  |  |  |  | CN1C(C)(C)CN(c2cc(F)ccc2CNC(=O)c2nc(C3CCOCC3)n(C)c(=O)c2O)S1(=O)=O
13 | 27 nM | 28 nM | 18 nM |  |  |  |  |  |  |  | Cn1cnnc1-c1cc(F)ccc1CNC(=O)c1nc(C2CCOC2)n(C)c(=O)c1O (racemic)
14 | 60 nM | 9 nM | 4 nM | 97.8 min | 0.14 L/kg | 4.9 mL/min/kg | 68% | 33.9 µM·h | 10.5 µM | 40.2 min | Cn1c(C2CCOC2)nc(C(=O)NCc2ccc(F)cc2)c(O)c1=O (racemic)
15 | 126 nM | 48 nM | 6 nM |  |  |  |  |  |  |  | Cn1c(C2COCC2O)nc(C(=O)NCc2ccc(F)cc2)c(O)c1=O (racemic)
16 | 33 nM | 7 nM | 3 nM | 64.8 min | 0.15 L/kg | 3.6 mL/min/kg | 67% | 39.5 µM·h | 8.04 µM | 100 min | CSC1COCC1c1nc(C(=O)NCc2ccc(F)cc2)c(O)c(=O)n1C (racemic)
17 | 120 nM | 10 nM | 5 nM |  |  |  |  |  |  |  | Cn1c(C2(C)CCCO2)nc(C(=O)NCc2ccc(F)cc2)c(O)c1=O (racemic)
18 | 153 nM | 15 nM | 5 nM |  |  |  |  |  |  |  | Cn1c(C2(C)CCCS2)nc(C(=O)NCc2ccc(F)cc2)c(O)c1=O (racemic)
19 | 301 nM | 49 nM | 10 nM |  |  |  |  |  |  |  | Cn1c(C2CCCCO2)nc(C(=O)NCc2ccc(F)cc2)c(O)c1=O (racemic)
20 | 33 nM | 14 nM | 9 nM |  |  |  |  |  |  |  | Cn1c(C2CCOC2)nc(C(=O)NCc2ccc(F)cc2S(C)(=O)=O)c(O)c1=O (racemic)
21 | 25 nM | 4 nM | 10 nM |  |  |  |  |  |  |  | CN(C)S(=O)(=O)c1cc(F)ccc1CNC(=O)c1nc(C2CCOC2)n(C)c(=O)c1O (racemic)
22 | 19 nM | 5 nM | 9 nM | 32.4 min | 0.2 L/kg | 6 mL/min/kg | 60% | 12.3 µM·h | 3.51 µM | 37.8 min | Cn1c(C2CCOC2)nc(C(=O)NCc2ccc(F)cc2N2CCCCS2(=O)=O)c(O)c1=O (racemic)
23 | 18 nM | 7 nM | 4 nM | 25.2 min | 0.98 L/kg | 47 mL/min/kg |  |  |  |  | Cn1c(C2CCOC2)nc(C(=O)NCc2ccc(F)cc2-n2cncn2)c(O)c1=O (racemic)
24 | 18 nM | 14 nM | 12 nM | 13.8 min | 0.76 L/kg | 37 mL/min/kg |  |  |  |  | Cc1ncnn1-c1cc(F)ccc1CNC(=O)c1nc(C2CCOC2)n(C)c(=O)c1O (racemic)
25 | 28 nM | 13 nM | 10 nM |  |  |  |  |  |  |  | Cc1cnnn1-c1cc(F)ccc1CNC(=O)c1nc(C2CCOC2)n(C)c(=O)c1O (racemic)
26 | 11 nM | 5 nM | 6 nM | 30 min | 0.36 L/kg | 12 mL/min/kg |  |  |  |  | Cn1ncnc1-c1cc(F)ccc1CNC(=O)c1nc(C2CCOC2)n(C)c(=O)c1O (racemic)
27 | 22 nM | 2 nM | 16 nM | 14.4 min | 0.36 L/kg | 31 mL/min/kg |  |  |  |  | Cn1c(C2CCOC2)nc(C(=O)NCc2ccc(F)cc2N2CCN(C(C)(C)C)S2(=O)=O)c(O)c1=O (racemic)
28 | 22 nM | 2 nM | 10 nM |  |  |  |  |  |  |  | CN1C(C)(C)CN(c2cc(F)ccc2CNC(=O)c2nc(C3CCOC3)n(C)c(=O)c2O)S1(=O)=O (racemic)
29 | 30 nM | 7 nM | 6 nM |  |  |  |  |  |  |  | CN1CCN(c2cc(F)ccc2CNC(=O)c2nc(C3CCOC3)n(C)c(=O)c2O)C1=O (racemic)
30 | 27 nM | 5 nM | 3 nM | 27.6 min | 0.44 L/kg | 15 mL/min/kg |  |  |  |  | COCCN1CCN(c2cc(F)ccc2CNC(=O)c2nc(C3CCOC3)n(C)c(=O)c2O)C1=O (racemic)
